Data published in patent US12187713B2, “Immunomodulators, compositions and methods thereof” (Betta Pharmaceuticals Co., Ltd, priority 2019, dated 2025).

Molecular target: PD-1/PD-L1 (Homo sapiens (Human), UniProt Q9NZQ7)
Experiment: PD-1/PD-L1 Binding Assay (Alphascreen)
Settings: numeric values
Outline: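 PD-1/PD-L1 binding detected by anti-6×His acceptor and streptavidin donor beads after 120 min in the dark at 25 °C. Beforehand, the two proteins were incubated 15 min at 25 °C with inhibitor at 0.015–300 nM (1% DMSO). IC50 comes from a log concentration–response curve.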

Chain of PD-1/PD-L1 (Q9NZQ7 19-238): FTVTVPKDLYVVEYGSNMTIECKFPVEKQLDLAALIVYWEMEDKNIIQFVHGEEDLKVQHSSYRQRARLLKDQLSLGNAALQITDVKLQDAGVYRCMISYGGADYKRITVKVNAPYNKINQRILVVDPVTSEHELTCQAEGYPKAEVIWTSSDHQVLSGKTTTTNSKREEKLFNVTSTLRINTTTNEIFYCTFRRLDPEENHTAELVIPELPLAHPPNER

| SMILES | IC50 [nM] |
| --- | --- |
| Cc1c(-c2nc3c(o2)CNC3)cccc1-c1cccc(-c2nc3cc(CN4CCC[C@H]4C(=O)O)c(OC(F)F)cc3o2)c1C [Example 202, ((6-(difluoromethoxy)-2-(3′-(5,6-dihydro-4H-pyrrolo[3,4-d]oxazol-2-yl)-2,2′-dimethyl-[1,1′-biphenyl]-3-yl)benzo[d]oxazol-5-yl)methyl)proline] | 0.37 |
| Cc1c(-c2nc3c(o2)CCN(CCO)C3)cccc1-c1cccc(-c2nc3cc(CN4CCC[C@H]4C(=O)O)c(OC(F)F)cc3o2)c1C [Example 206, ((6-(difluoromethoxy)-2-(3′-(5-(2-hydroxyethyl)-4,5,6,7-tetrahydrooxazolo[4,5-c]pyridin-2-yl)-2,2′-dimethyl-[1,1′-biphenyl]-3-yl)benzo[d]oxazol-5-yl)methyl)-L-proline] | 1.4 |
| Cc1c(COc2cc(OCc3cncc(OC(F)F)c3)c(CN3CC[C@@H](O)C3)cc2Cl)cccc1-c1cccc(-c2nc3cc(CN4CCC[C@H]4C(=O)O)c(OC(F)F)cc3o2)c1C [Example 208, ((2-(3′-((2-chloro-5-((5-(difluoromethoxy)pyridin-3-yl)methoxy)-4-(((R)-3-hydroxypyrrolidin-1-yl)methyl)phenoxy)methyl)-2,2′-dimethyl-[1,1′-biphenyl]-3-yl)-6-(difluoromethoxy)benzo[d]oxazol-5-yl)methyl)-L-proline] | 114 |
| COc1nc(OCc2cccc(-c3cccc(-c4nc5cc(CN6CCC[C@H]6C(=O)O)c(OC(F)F)cc5o4)c3C)c2C)nc(OC)c1CN1CCCC1 [Example 212, ((6-(difluoromethoxy)-2-(3′-(((4,6-dimethoxy-5-(pyrrolidin-1-ylmethyl)pyrimidin-2-yl)oxy)methyl)-2,2′-dimethyl-[1,1′-biphenyl]-3-yl)benzo[d]oxazol-5-yl)methyl)-L-proline] | 8.4 |
| Cc1c(-c2nc3cc(CN4CCC[C@H]4C(=O)O)c(OC(F)F)cc3o2)cccc1-c1cccc(-c2ccc(CNC[C@@H]3CCC(=O)N3)cc2)c1F [Example 215, ((6-(difluoromethoxy)-2-(2′-fluoro-2-methyl-4″- (((((S)-5-oxopyrrolidin-2-yl)methyl)amino)methyl)-[1,1′:3′,1″- terphenyl]-3-yl)benzo[d]oxazol-5-yl)methyl)-L-proline] | 2.8 |
| Cc1c(-c2ccc(CNCCO)cc2)cccc1-c1cccc(-c2nc3cc(CN4CCC[C@H]4C(=O)O)c(OC(F)F)cc3o2)c1C [Example 217, ((6-(difluoromethoxy)-2-(4″-(((2-hydroxyethyl)amino)methyl)-2,2′-dimethyl-[1,1′:3′,1″-terphenyl]-3-yl)benzo[d]oxazol-5-yl)methyl)-L-proline] | 0.67 |

Same assay, conditions: range symbols

| SMILES | IC50 [nM] |
| --- | --- |
| Cc1c(-c2nc3c(o2)CN(CCO)CC3)cccc1-c1cccc(-c2nc3cc(CN4CCC[C@H]4C(=O)O)c(OC(F)F)cc3o2)c1C [Example 189, ((6-(difluoromethoxy)-2-(3′-(5-(2-hydroxyethyl)-4,5,6,7-tetrahydrooxazolo[5,4-c]pyridin-2-yl)-2,2′-dimethyl-[1,1′-biphenyl]-3-yl)benzo[d]oxazol-5-yl)methyl)-L-proline] | 0.1 to 5 |
| Cc1c(-c2nc3c(o2)CCN(CC2CCC(=O)N2)C3)cccc1-c1cccc(-c2nc3cc(CN4CCC[C@H]4C(=O)O)c(OC(F)F)cc3o2)c1C (stereo partly drawn) [Example 193, ((6-(difluoromethoxy)-2-(2,2′-dimethyl-3′-(5-((5-oxopyrrolidin-2-yl)methyl)-4,5,6,7-tetrahydrooxazolo[4,5-c]pyridin-2-yl)-[1,1′-biphenyl]-3-yl)benzo[d]oxazol-5-yl)methyl)proline] | 5 to 50 |
| Cc1c(-c2nc3c(o2)CCN(Cc2cccnc2)C3)cccc1-c1cccc(-c2nc3cc(CN4CCC[C@H]4C(=O)O)c(OC(F)F)cc3o2)c1C [Example 194, ((6-(difluoromethoxy)-2-(2,2′-dimethyl-3′-(5-(pyridin-3-ylmethyl)-4,5,6,7-tetrahydrooxazolo[4,5-c]pyridin-2-yl)-[1,1′-biphenyl]-3-yl)benzo[d]oxazol-5-yl)methyl)proline] | 5 to 50 |
| Cc1c(-c2nc3c(o2)CCN(CC(N)=O)C3)cccc1-c1cccc(-c2nc3cc(CN4CCC[C@H]4C(=O)O)c(OC(F)F)cc3o2)c1C [Example 196, ((2-(3′-(5-(2-amino-2-oxoethyl)-4,5,6,7-tetrahydrooxazolo[4,5-c]pyridin-2-yl)-2,2′-dimethyl-[1,1′-biphenyl]-3-yl)-6-(difluoromethoxy)benzo[d]oxazol-5-yl)methyl)proline] | 5 to 50 |
| Cc1c(-c2nc3c(o2)CCN(CCCO)C3)cccc1-c1cccc(-c2nc3cc(CN4CCC[C@H]4C(=O)O)c(OC(F)F)cc3o2)c1C [Example 199, ((6-(difluoromethoxy)-2-(3′-(5-(3-hydroxypropyl)-4,5,6,7-tetrahydrooxazolo[4,5-c]pyridin-2-yl)-2,2′-dimethyl-[1,1′-biphenyl]-3-yl)benzo[d]oxazol-5-yl)methyl)proline] | 5 to 50 |
| Cc1c(-c2nc3c(o2)CCN(CCCF)C3)cccc1-c1cccc(-c2nc3cc(CN4CCC[C@H]4C(=O)O)c(OC(F)F)cc3o2)c1C [Example 200, ((6-(difluoromethoxy)-2-(3′-(5-(3-fluoropropyl)-4,5,6,7-tetrahydrooxazolo[4,5-c]pyridin-2-yl)-2,2′-dimethyl-[1,1′-biphenyl]-3-yl)benzo[d]oxazol-5-yl)methyl)proline] | 5 to 50 |
| CC(=O)NCCNCc1cc(Cl)c(OCc2cccc(-c3cccc(-c4nc5cc(CN6CCC[C@H]6C(=O)O)c(OC(F)F)cc5o4)c3C)c2C)cc1OCc1cccc(C#N)c1 [Example 210] | 0.1 to 5 |
| Cc1c(COc2cc(OCc3cccc(C#N)c3)c(CN3CCC[C@H]3C(=O)O)cc2Cl)cccc1-c1cccc(-c2nc3cc(CN4CCC[C@H]4C(=O)O)c(OC(F)F)cc3o2)c1C [Example 211] | 0.1 to 5 |
| COc1nc(OCc2cccc(-c3cccc(-c4nc5cc(CN6CCC[C@H]6C(=O)O)c(OC(F)F)cc5o4)c3C)c2C)nc(OC)c1CN1CC(C)(C)C1 [Example 213, ((6-(difluoromethoxy)-2-(3′-(((5-((3,3-dimethylazetidin-1-yl)methyl)-4,6-dimethoxypyrimidin-2-yl)oxy)methyl)-2,2′-dimethyl-[1,1′-biphenyl]-3-yl)benzo[d]oxazol-5-yl)methyl)-L-proline] | 5 to 50 |
| Cc1c(Oc2ccc(CNC[C@@H]3CCC(=O)N3)cn2)cccc1-c1cccc(-c2nc3cc(CN4CCC[C@H]4C(=O)O)c(OC(F)F)cc3o2)c1C [Example 214, ((6-(difluoromethoxy)-2-(2,2′-dimethyl-3′-((5-(((((S)-5-oxopyrrolidin-2-yl)methyl)amino)methyl)pyridin-2-yl)oxy)-[1,1′-biphenyl]-3-yl)benzo[d]oxazol-5-yl)methyl)-L-proline] | > 50 |
| Cc1c(-c2nc3cc(CN4CCC[C@H]4C(=O)O)c(OC(F)F)cc3o2)cccc1-c1cccc(-c2ccc(CNC[C@@H]3CCC(=O)N3)c(OC(F)F)c2)c1F [Example 216, ((6-(difluoromethoxy)-2-(3″-(difluoromethoxy)-2′-fluoro-2-methyl-4″-(((((S)-5-oxopyrrolidin-2-yl)methyl)amino)methyl)-[1,1′:3′,1″- terphenyl]-3-yl)benzo[d]oxazol-5-yl)methyl)-L-proline] | 0.1 to 5 |
| Cc1cc(-c2cccc(-c3cccc(-c4nc5cc(CN6CCC[C@H]6C(=O)O)c(OC(F)F)cc5o4)c3C)c2C)ccc1CN1CCCC1 [Example 218, ((6-(difluoromethoxy)-2-(2,2′,3″-trimethyl-4″- (pyrrolidin-1-ylmethyl)-[1,1′:3′,1″-terphenyl]-3-yl)benzo[d]oxazol-5-yl)methyl)proline] | 0.1 to 5 |
